From US20190307729A1, “ANTIMICROBIAL COMPOUNDS AND METHODS FOR USE THEREOF” (VERSITECH LIMITED, priority 2016, published 2019)
Like-named read-outs stand apart in the source and are kept apart here.

Tests used:
S. aureus Mu3 = test: Secondary screening of compound 13 analogues in combination with gentamicin (growth by OD 595 nm); conditions: for 20 μM + 200 μg/ml Gentamicin Growth inhibition Percentage: 20 μM compound + 200 μg/ml gentamicin; for inhibition at 50 µM / activity at 5 µM / activity at 20 µM / activity at 50 µM / inhibition at 20 µM: Staphylococcus aureus; for activity at 5 µM / activity at 20 µM / activity at 50 µM: MU3, 16 h; for 50 μM + 200 μg/ml Gentamicin Growth inhibition Percentage: 50 μM compound + 200 μg/ml gentamicin
Procedure: All screening is done in 384-well polystyrene microtiter plates (Greiner Bio-One). Overnight culture of Mu3 is washed with BHI medium 3 times, diluted and plated to give 5×10^5 CFU/mL per well. The plates are incubated at 37° C. for 16 hours and growth is monitored by optical density reading at 595 nm using an automated DTX 880 multimode detector. Screening using BHI medium is designated as the background screen. […] Sub MIC concentration of antibiotics is selected for screening. BHI containing a final concentration for gentamicin 156.25 μg/mL is used correspondingly for individual experiments. […] Screening results with various antibiotics is normalized with the background screening to calculate the percentage of growth inhibition.
Identical experimental procedures are performed as primary screening procedures, except different concentrations of selected compound are tested.
Secondary like screening was performed with different concentrations of each analogue compounds were tested with different gentamicin concentration, 50 μM, 20 μM and 5 μM compound concentration were used against, BHI containing, 0 μg/ml, 100 μg/ml and 200 μg/ml gentamicin.

S. aureus Mu3 strain = test: Microdilution checkerboard assay of compound with aminoglycosides
Procedure: The Checkerboard assay is performed in 96-well microtitre plates. […] The antibiotics are 2 fold serially diluted along the ordinate, the compounds are added along the abscissa to generate the checkerboard concentration gradients between the compounds and the antibiotics. Bacterial culture are topped and incubated overnight. Bacterial growth is monitored by the OD absorbance at 595 nm.
The concentration tested range was from 500M to 0.98 μM. MICs higher than 500M were not determined.

Vero cells = test: Cytotoxicity assay (MTT); assay type: cell-based
Procedure: MTT assays are performed for selected compounds on Vero cells according to product instructions.

[1] = [Cpd] 5 μM, BHI only (no gentamicin), relative to DMSO = 1
[2] = [Cpd] 5 μM, [Genta] 100 ug/ml, relative to DMSO = 1
[3] = [Cpd] 5 μM, [Genta] 200 ug/ml, relative to DMSO = 1
[4] = [Cpd] 20 μM, BHI only (no gentamicin), relative to DMSO = 1
[5] = [Cpd] 20 μM, [Genta] 100 ug/ml, relative to DMSO = 1
[6] = [Cpd] 20 μM, [Genta] 200 ug/ml, relative to DMSO = 1
[7] = [Cpd] 50 μM, BHI only (no gentamicin), relative to DMSO = 1
[8] = [Cpd] 50 μM, [Genta] 100 ug/ml, relative to DMSO = 1
[9] = [Cpd] 50 μM, [Genta] 200 ug/ml, relative to DMSO = 1
[10] = MU3, read-out: 50 μM + 200 μg/ml Gentamicin Growth inhibition Percentage, 50 μM compound + 200 μg/ml gentamicin, S. aureus Mu3
[11] = MU3, read-out: 20 μM + 200 μg/ml Gentamicin Growth inhibition Percentage
[12] = MU3, read-out: 50 μM + 200 μg/ml Gentamicin Growth inhibition Percentage
[13] = read-out: relative growth, [Cpd] 5 μM, BHI only (no gentamicin), relative to DMSO = 1
[14] = read-out: relative growth, [Cpd] 20 μM, BHI only (no gentamicin), relative to DMSO = 1
[15] = read-out: relative growth, [Cpd] 50 μM, BHI only (no gentamicin), relative to DMSO = 1

SMILES | relative growth (S. aureus Mu3; [2]) | relative growth (S. aureus Mu3; [3]) | relative growth (S. aureus Mu3; [5]) | relative growth (S. aureus Mu3; [6]) | relative growth (S. aureus Mu3; [8]) | relative growth (S. aureus Mu3; [9]) | activity at 5 µM (S. aureus Mu3; read-out: relative growth) | activity at 20 µM (S. aureus Mu3; read-out: relative growth) | activity at 50 µM (S. aureus Mu3; read-out: relative growth) | inhibition at 20 µM (S. aureus Mu3; [11]) | inhibition at 50 µM (S. aureus Mu3; [12]) | further results
O=C(O)CN1C(=O)/C(=C/c2ccccc2)SC1=S [Compound 1] | 1.29 | 1.45 | 1.1 | 1.05 | 1.11 | 1.01 |  |  |  |  |  | relative growth (S. aureus Mu3; [1]): 1.38; relative growth (S. aureus Mu3; [4]): 1.22; relative growth (S. aureus Mu3; [7]): 1
COC(=O)c1ccccc1 [Compound 2] | 1.1 | 1.2 | 0.93 | 0.65 | 0.62 | *0.24 |  |  |  |  |  | 20 μM + 200 μg/ml Gentamicin Growth inhibition Percentage (S. aureus Mu3; S. aureus Mu3, 20 µM): 35%; inhibition at 50 µM (S. aureus Mu3; [10]): 76%; relative growth (S. aureus Mu3; [1]): 1.15; relative growth (S. aureus Mu3; [4]): 1.08; relative growth (S. aureus Mu3; [7]): 1.07
COc1cc(/C=C2\SC(=S)N(CC(=O)O)C2=O)ccc1OCc1ccc(Cl)cc1 [Compound 6] | 1.13 | 1.11 | 0.61 | *0.1 | *0.2 | *0.11 | 120% | 114% | 79% | 90% | 89% | 
COc1ccc(/C=C2\SC(=S)N(CC(=O)O)C2=O)cc1OCc1ccc(Cl)cc1 [Compound 15] | 1.01 | 1 | 0.52 | *0.09 | *0.18 | *0.11 | 102% | 97% | 79% | 91% | 89% | 
O=C(O)CN1C(=O)/C(=C/c2cccc(OCc3ccc(Cl)cc3Cl)c2)SC1=S [Compound 17] | *0.35 | *0.1 | *0.09 | *0.09 | *0.14 | *0.13 | 99% | 74% | 43% | 91% | 87% | Combinatory effect with gentamicin (S. aureus Mu3 strain; checkerboard): Potentiating; combined effect with gentamicin in inhibiting growth (S. aureus Mu3 strain): potentiating activities; combined effect with gentamicin in inhibiting growth (S. aureus Mu3 strain; listed as compound 17): potentiating effect; cytotoxicity from Vero cell MTT assays (Vero cells): high cytotoxicity; Cytotoxicity (Vero cells; MTT assays in Vero cells): High
COc1ccc(/C=C2\SC(=S)N(CC(=O)O)C2=O)cc1OCc1ccc(Cl)cc1Cl [Compound 18] | 0.97 | 0.9 | 0.8 | 0.76 | 0.88 | 0.7 | 98% | 85% | 97% | 24% | 30% | 
COc1cc(/C=C2\SC(=S)N(CC(=O)O)C2=O)ccc1OCc1ccccc1 [Compound 22] | 1.08 | 1.05 | 0.99 | 0.88 | 0.91 | 0.52 | 108% | 101% | 94% | 12% | 48% | 
COc1ccc(/C=C2\SC(=S)N(CC(=O)O)C2=O)cc1OCc1ccccc1 [Compound 24] | 0.94 | 0.95 | 0.92 | 0.73 | 0.72 | *0.32 | 96% | 93% | 92% | 27% | 68% | 
COc1cc(/C=C2\SC(=S)N(CC(=O)O)C2=O)ccc1OCc1ccccc1F [Compound 25] | 0.95 | 0.92 | 0.89 | 0.62 | 0.91 | 0.42 | 96% | 91% | 95% | 38% | 58% | 
COC(=O)c1ccccc1 [Compound 29] | 0.94 | 0.89 | 0.67 | *0.39 | *0.11 | *0.08 |  |  |  |  |  | 20 μM + 200 μg/ml Gentamicin Growth inhibition Percentage (S. aureus Mu3; S. aureus Mu3, 20 µM): 61%; 50 μM + 200 μg/ml Gentamicin Growth inhibition Percentage (S. aureus Mu3; S. aureus Mu3, 50 µM): 92%; activity at 5 µM (S. aureus Mu3; [13]): 96%; activity at 20 µM (S. aureus Mu3; [14]): 90%; activity at 50 µM (S. aureus Mu3; [15]): 89%
CCOc1ccc(/C=C2\SC(=S)N(CC(=O)O)C2=O)cc1 [Compound 31] | 0.98 | 0.95 | 0.98 | 0.77 | 0.98 | 0.61 | 99% | 96% | 98% | 23% | 39% | 
CCOc1cc(/C=C2\SC(=S)N(CC(=O)O)C2=O)ccc1OCc1ccc(Cl)c(Cl)c1 [Compound 34] | 0.9 | *0.24 | 0.67 | *0.33 | 1.16 | 0.57 | 112% | 109% | 113% | 67% | 43% | 
COc1cc(/C=C2\SC(=S)N(CC(=O)O)C2=O)ccc1OCc1ccc(Br)cc1 [Compound 44] | 1.02 | 0.83 | 0.99 | 0.83 | 0.97 | 0.47 | 103% | 103% | 98% | 17% | 53% | 
COc1cc(C=C2SC(=S)N(CC(=O)O)C2=O)ccc1OCc1ccc(F)cc1Cl [Compound 50] | 0.91 | 0.87 | 0.82 | 0.64 | 0.9 | 0.6 |  |  |  |  |  | 20 μM + 200 μg/ml Gentamicin Growth inhibition Percentage (S. aureus Mu3; S. aureus Mu3): 36%; 50 μM + 200 μg/ml Gentamicin Growth inhibition Percentage (S. aureus Mu3; S. aureus Mu3): 40%; relative growth (S. aureus Mu3; [1]): 0.93; relative growth (S. aureus Mu3; [4]): 0.82; relative growth (S. aureus Mu3; [7]): 0.96
COCc1ccccc1 [Compound 52] | 0.96 | 0.93 | 0.89 | 0.69 | 0.74 | *0.36 |  |  |  |  |  | activity at 5 µM (S. aureus Mu3; [13]): 95%; activity at 20 µM (S. aureus Mu3; [14]): 86%; activity at 50 µM (S. aureus Mu3; [15]): 76%; inhibition at 20 µM (S. aureus Mu3; MU3, read-out: 20 μM + 200 μg/ml Gentamicin Growth inhibition Percentage, 20 μM compound + 200 μg/ml gentamicin, S. aureus Mu3): 31%; inhibition at 50 µM (S. aureus Mu3; [10]): 64%
CC(C(=O)O)N1C(=O)/C(=C/c2ccc(Cl)cc2)SC1=S (stereo not drawn) [Compound 53] | 0.92 | 0.89 | 0.9 | 0.76 | 0.84 | *0.38 | 93% | 89% | 88% | 24% | 62% | 
O=C(O)CN1C(=O)/C(=C/c2cccc(OCc3ccccc3F)c2)SC1=S [Compound 63] | 0.97 | 0.88 | 0.67 | *0.35 | *0.11 | *0.08 | 97% | 93% | 84% | 65% | 92% | 
COC(=O)CN1C(=O)C(=Cc2ccc(OCc3ccccc3)cc2)SC1=S [Compound 69] | 0.97 | 0.98 | 0.56 | *0.11 | *0.27 | *0.23 |  |  |  |  |  | 20 μM + 200 μg/ml Gentamicin Growth inhibition Percentage (S. aureus Mu3; S. aureus Mu3): 89%; 50 μM + 200 μg/ml Gentamicin Growth inhibition Percentage (S. aureus Mu3; S. aureus Mu3): 77%; relative growth (S. aureus Mu3; [1]): 0.97; relative growth (S. aureus Mu3; [4]): 1.02; relative growth (S. aureus Mu3; [7]): 0.55
